Measured values reported in patent publication US10239843B2 (CANCER RESEARCH TECHNOLOGY LIMITED, priority 2014, dated 2019).
Read-outs that look alike come from different tables or passages of the source.

Legend:
PARG in HeLa cell line = assay: PARG cell assay (PAR chain immunofluorescence after MMS); assay type: cell-based; conditions: HeLa cells
Summary of the method: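 HeLa cells were dosed with compound for 1 h, then given MMS at 50 μg/mL final for a further hour. Cells were methanol-fixed, permeabilised and stained overnight at 4° C with anti-PAR monoclonal antibody. Retained nuclear PAR chains, detected by indirect immunofluorescence, indicate PARG inhibition.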

Human Full Length PARG = Human Full Length PARG (Homo sapiens (Human), UniProt Q86W56); assay: PARG enzyme assay (TR-FRET); assay type: biochemical
Chain of Human Full Length PARG (Q86W56 whole entry): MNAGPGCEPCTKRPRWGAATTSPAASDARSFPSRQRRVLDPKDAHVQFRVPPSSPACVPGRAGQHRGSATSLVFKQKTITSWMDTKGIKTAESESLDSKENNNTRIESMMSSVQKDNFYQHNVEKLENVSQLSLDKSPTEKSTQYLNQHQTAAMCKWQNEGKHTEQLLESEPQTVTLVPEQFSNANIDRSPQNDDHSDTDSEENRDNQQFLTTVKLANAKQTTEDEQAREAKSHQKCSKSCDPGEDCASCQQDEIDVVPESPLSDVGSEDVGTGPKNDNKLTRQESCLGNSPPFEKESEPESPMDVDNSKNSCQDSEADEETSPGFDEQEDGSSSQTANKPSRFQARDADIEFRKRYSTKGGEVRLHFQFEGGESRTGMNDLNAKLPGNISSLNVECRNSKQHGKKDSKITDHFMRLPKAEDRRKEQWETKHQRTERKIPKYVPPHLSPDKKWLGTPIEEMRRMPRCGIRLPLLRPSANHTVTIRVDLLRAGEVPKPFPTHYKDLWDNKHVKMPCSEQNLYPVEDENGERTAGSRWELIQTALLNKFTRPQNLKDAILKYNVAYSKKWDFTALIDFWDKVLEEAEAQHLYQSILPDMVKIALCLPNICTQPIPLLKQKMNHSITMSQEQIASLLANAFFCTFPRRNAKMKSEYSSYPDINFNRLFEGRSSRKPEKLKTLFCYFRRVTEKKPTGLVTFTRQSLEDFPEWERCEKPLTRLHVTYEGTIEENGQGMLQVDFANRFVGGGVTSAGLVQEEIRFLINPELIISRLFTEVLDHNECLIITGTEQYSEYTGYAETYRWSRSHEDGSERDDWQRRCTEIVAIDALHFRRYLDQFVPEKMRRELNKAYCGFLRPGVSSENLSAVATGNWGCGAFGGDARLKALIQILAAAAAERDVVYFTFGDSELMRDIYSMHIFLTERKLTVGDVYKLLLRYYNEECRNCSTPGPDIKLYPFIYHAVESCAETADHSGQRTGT

[1] = Homo sapiens, MMS treatment, read-out: PARG Cell IC50
[2] = MMS treatment, read-out: PARG Cell IC50
[3] = Homo sapiens, MMS 50 μg/mL, read-out: PARG Cell IC50 Geomean
[4] = read-out: PARG Biochem IC50 Geomean
[5] = MMS 50 μg/mL, read-out: PARG Cell IC50 Geomean

Row | IC50 (PARG in HeLa cell line; [1]) | IC50 (Human Full Length PARG; read-out: PARG Biochem IC50) | IC50 (Human Full Length PARG; [4]) | Compound | other results
1 | 233 nM | 190 nM | – | Cn1cc(Cn2c(=O)c3cc(S(=O)(=O)NC4(CF)CC4)ccc3n(CC3CCCO3)c2=O)cn1 (stereo not drawn) [Example 619, N-[1-(Fluoromethyl)cyclopropyl]-3-[(1-methylpyrazol-4-yl)methyl]-2,4-dioxo-1-(tetrahydrofuran-2-ylmethyl)quinazoline-6-sulfonamide] | –
2 | 2250 nM | 2710 nM | – | Cn1c(=O)n(CCC#N)c(=O)c2cc(S(=O)(=O)NC3(C)CC3)ccc21 [Example 497, 3-(2-Cyanoethyl)-1-methyl-N-(1-methylcyclopropyl)-2,4-dioxo-quinazoline-6-sulfonamide] | –
3 | 350 nM | 604 nM | – | Cc1cc(Cn2c(=O)c3cc(S(=O)(=O)NC4(C)CC4)ccc3n(CC#N)c2=O)on1 [Example 503, 1-(Cyanomethyl)-N-(1-methylcyclopropyl)-3-[(3-methylisoxazol-5-yl)methyl]-2,4-dioxo-quinazoline-6-sulfonamide] | –
4 | – | 162 nM | – | Cn1cc(Cn2c(=O)c3cc(S(=O)(=O)NC4(CF)CC4)ccc3n(Cc3cccc(C#N)n3)c2=O)cn1 [Example 538, 1-[(6-Cyano-2-pyridyl)methyl]-N-[1-(fluoromethyl)cyclopropyl]-3-[(1-methylpyrazol-4-yl)methyl]-2,4-dioxo-quinazoline-6-sulfonamide] | IC50 (PARG in HeLa cell line; [2]): 393 nM
5 | 66 nM | 8 nM | – | Cn1cc(Cn2c(=O)c3cc(S(=O)(=O)NC4(CF)CC4)ccc3n(Cc3cncs3)c2=O)cn1 [Example 563, N-[1-(Fluoromethyl)cyclopropyl]-3-[(1-methylpyrazol-4-yl)methyl]-2,4-dioxo-1-(thiazol-5-ylmethyl)quinazoline-6-sulfonamide] | –
6 | 238 nM | 126 nM | – | Cn1cc(Cn2c(=O)c3cc(S(=O)(=O)NC4(CF)CC4)ccc3n(CC3(CO)CC3)c2=O)cn1 [Example 570, N-[1-(Fluoromethyl)cyclopropyl]-1-[[1-(hydroxymethyl)cyclopropyl]methyl]-3-[(1-methylpyrazol-4-yl)methyl]-2,4-dioxo-quinazoline-6-sulfonamide] | –
7 | – | 24 nM | – | Cn1cc(Cn2c(=O)c3cc(S(=O)(=O)NC4(CF)CC4)ccc3n(Cc3cnsc3)c2=O)cn1 [Example 577, N-[1-(Fluoromethyl)cyclopropyl]-1-(isothiazol-4-ylmethyl)-3-[(1-methylpyrazol-4-yl)methyl]-2,4-dioxo-quinazoline-6-sulfonamide] | IC50 (PARG in HeLa cell line; [2]): 36 nM
8 | 312 nM | 50 nM | – | Cc1cc(Cn2c(=O)c3cc(S(=O)(=O)NC4(CF)CC4)ccc3n(Cc3cc(C)nn3C)c2=O)on1 [Example 519, 1-[(2,5-Dimethylpyrazol-3-yl)methyl]-N-[1-(fluoromethyl)cyclopropyl]-3-[(3-methylisoxazol-5-yl)methyl]-2,4-dioxo-quinazoline-6-sulfonamide] | –
9 | 373 nM | 330 nM | – | Cc1ccnc(Cn2c(=O)n(Cc3cnn(C)c3)c(=O)c3cc(S(=O)(=O)NC4(CF)CC4)ccc32)c1 [Example 571, N-[1-(Fluoromethyl)cyclopropyl]-3-[(1-methylpyrazol-4-yl)methyl]-1-[(4-methyl-2-pyridyl)methyl]-2,4-dioxo-quinazoline-6-sulfonamide] | –
10 | – | 192 nM | – | Cn1cc(Cn2c(=O)c3cc(S(=O)(=O)NC4(CF)CC4)ccc3n(Cc3ncnn3C)c2=O)cn1 [Example 562, N-[1-(Fluoromethyl)cyclopropyl]-3-[(1-methylpyrazol-4-yl)methyl]-1-[(2-methyl-1,2,4-triazol-3-yl)methyl]-2,4-dioxo-quinazoline-6-sulfonamide] | IC50 (PARG in HeLa cell line; [2]): 598 nM
11 | – | 7100 nM | – | Cc1cc(Cn2c(=O)n(Cc3cnn(C)c3)c(=O)c3cc(S(=O)(=O)NC4(C(F)(F)F)CC4)ccc32)n(C)n1 [Example 485, 1-[(2,5-Dimethylpyrazol-3-yl)methyl]-3-[(1-methylpyrazol-4-yl)methyl]-2,4-dioxo-N-[1-(trifluoromethyl)cyclopropyl]quinazoline-6-sulfonamide] | IC50 (PARG in HeLa cell line; [2]): 4070 nM
12 | – | 451 nM | – | Cc1cc(Cn2c(=O)c3cc(S(=O)(=O)NC4(CF)CC4)ccc3n(Cc3ncn(C)n3)c2=O)on1 [Example 553, N-[1-(Fluoromethyl)cyclopropyl]-3-[(3-methylisoxazol-5-yl)methyl]-1-[(1-methyl-1,2,4-triazol-3-yl)methyl]-2,4-dioxo-quinazoline-6-sulfonamide] | IC50 (PARG in HeLa cell line; [2]): 1510 nM
13 | 93 nM | 263 nM | – | Cn1cc(Cn2c(=O)c3cc(S(=O)(=O)NC4(C)CC4)ccc3n(CC(F)F)c2=O)cn1 [Example 599, 1-(2,2-Difluoroethyl)-N-(1-methylcyclopropyl)-3-[(1-methylpyrazol-4-yl)methyl]-2,4-dioxo-quinazoline-6-sulfonamide] | –

Continued, compound first:

Row | Compound | IC50 (PARG in HeLa cell line; [1]) | IC50 (Human Full Length PARG; read-out: PARG Biochem IC50) | IC50 (Human Full Length PARG; [4]) | other results
14 | Cc1cc(Cn2c(=O)c3cc(S(=O)(=O)NC4(C)CC4)ccc3n(CCC(=O)N(C)C)c2=O)on1 [Example 406, N, N-Dimethyl-3-[6-[(1-methylcyclopropyl)sulfamoyl]-3-[(3-methylisoxazol-5-yl)methyl]-2,4-dioxo-quinazolin-1-yl]propanamide] | 800 nM | 456 nM | – | –
15 | CN(C)C(=O)c1cc(S(=O)(=O)NC2(C)CC2)cc2c(=O)n(Cc3cnn(C)c3)c(=O)[nH]c12 [Example 449, N,N-Dimethyl-6-[(1-methylcyclopropyl)sulfamoyl]-3-[(1-methylpyrazol-4-yl)methyl]-2,4-dioxo-1H-quinazoline-8-carboxamide] | 13200 nM | 5780 nM | – | –
16 | CCn1c(=O)n(Cc2cnn(C)c2)c(=O)c2cc(S(=O)(=O)NC3(C)CC3)c(F)cc21 [Example 389, 1-Ethyl-7-fluoro-N-(1-methylcyclopropyl)-3-[(1-methylpyrazol-4-yl)methyl]-2,4-dioxo-quinazoline-6-sulfonamide] | – | – | 60 nM | IC50 (PARG in HeLa cell line; [3]): 79 nM
17 | Cc1cc(Cn2c(=O)c3cc(S(=O)(=O)NC4(C)CC4)ccc3n(CCN3CCOCC3)c2=O)on1 [Example 276] | – | – | 255 nM | IC50 (PARG in HeLa cell line; [3]): 536 nM
18 | Cn1cc(Cn2c(=O)c3cc(S(=O)(=O)NC4(C)CC4)ccc3n(Cc3cnn(C)c3)c2=O)cn1 [Example 328] | – | – | 48 nM | IC50 (PARG in HeLa cell line; [3]): 116 nM
19 | Cn1cc(Cn2c(=O)c3cc(S(=O)(=O)NC4(C)CC4)ccc3n(CCC3CC3)c2=O)cn1 [Example 296] | – | – | 73 nM | IC50 (PARG in HeLa cell line; [3]): 70 nM
20 | Cn1cc(Cn2c(=O)c3cc(S(=O)(=O)NC4(C)CC4)ccc3n(CC3CC3(F)F)c2=O)cn1 (stereo not drawn) [Example 435, 1-[(2,2-Difluorocyclopropyl)methyl]-N-(1-methylcyclopropyl)-3-[(1-methylpyrazol-4-yl)methyl]-2,4-dioxo-quinazoline-6-sulfonamide] | 46 nM | 104 nM | – | –
21 | Cc1cc(Cn2c(=O)c3cc(S(=O)(=O)NC4(C)CC4)ccc3n(Cc3cc(C)nn3C)c2=O)on1 [Example 207] | – | – | 38 nM | IC50 (PARG in HeLa cell line; [5]): 116 nM
22 | Cn1c(=O)c2cc(S(=O)(=O)NC3(C)CC3)ccc2n(Cc2cnc(Cl)s2)c1=O [Example 145] | – | – | 151 nM | IC50 (PARG in HeLa cell line; [3]): 342 nM
23 | Cc1cc(Cn2c(=O)n(Cc3cnn(C)c3)c(=O)c3cc(S(=O)(=O)NC4(C#N)CC4)c(F)cc32)on1 [Example 404, N-(1-Cyanocyclopropyl)-7-fluoro-1-[(3-methylisoxazol-5-yl)methyl]-3-[(1-methylpyrazol-4-yl)methyl]-2,4-dioxo-quinazoline-6-sulfonamide] | 3860 nM | 71 nM | – | –
24 | Cc1ccc(Cn2c(=O)c3cc(S(=O)(=O)NC4(C)CC4)ccc3n(C)c2=O)cn1 [Example 423, 1-Methyl-N-(1-methylcyclopropyl)-3-[(6-methyl-3-pyridyl)methyl]-2,4-dioxo-quinazoline-6-sulfonamide] | 1350 nM | 1600 nM | – | –
25 | COc1cccc(Cn2c(=O)n(Cc3cc(C)no3)c(=O)c3cc(S(=O)(=O)NC4(C)CC4)ccc32)c1 [Example 200] | – | – | 250 nM | IC50 (PARG in HeLa cell line; [3]): 223 nM
26 | Cc1cc(Cn2c(=O)c3cc(S(=O)(=O)NC4(C)CC4)ccc3n(Cc3cc(C(F)(F)F)nn3C)c2=O)on1 [Example 230] | – | – | 127 nM | IC50 (PARG in HeLa cell line; [5]): 213 nM
27 | Cc1cc(COc2nc3ccc(S(=O)(=O)NC4(C)CC4)cc3c(=O)n2Cc2cnc(C)s2)n(C)n1 [Example 164] | – | – | 343 nM | IC50 (PARG in HeLa cell line; [5]): 782 nM
28 | Cc1cc(Cn2c(=O)c3cc(S(=O)(=O)NC4(C)CC4)ccc3n(CC(=O)N3CCC3)c2=O)on1 [Example 414, 1-[2-(Azetidin-1-yl)-2-oxo-ethyl]-N-(1-methylcyclopropyl)-3-[(3-methylisoxazol-5-yl)methyl]-2,4-dioxo-quinazoline-6-sulfonamide] | – | 2080 nM | – | IC50 (PARG in HeLa cell line; [2]): 9220 nM
29 | Cc1cc(Cn2c(=O)c3cc(S(=O)(=O)NC4(C)CC4)ccc3n(CC3CCOCC3)c2=O)on1 [Example 321] | – | – | 138 nM | IC50 (PARG in HeLa cell line; [3]): 195 nM
30 | Cc1cc(Cn2nc(C3CC3)c3ccc(S(=O)(=O)NC4(C)CC4)cc3c2=O)on1 [Example 313] | – | – | 349 nM | IC50 (PARG in HeLa cell line; [5]): 420 nM
31 | Cc1cc(Cn2c(=O)c3cc(S(=O)(=O)NC4(C)CC4)ccc3n(CC3CN(C=O)C3)c2=O)on1 [Example 425, 1-[(1-Formylazetidin-3-yl)methyl]-N-(1-methylcyclopropyl)-3-[(3-methylisoxazol-5-yl)methyl]-2,4-dioxo-quinazoline-6-sulfonamide] | 7810 nM | 214 nM | – | –
32 | Cc1cc(Cn2c(=O)n(Cc3cnn(C)c3)c(=O)c3cc(S(=O)(=O)NC4(C)CC4)c(F)cc32)n(C)n1 [Example 392, 1-[(2,5-Dimethylpyrazol-3-yl)methyl]-7-fluoro-N-(1-methylcyclopropyl)-3-[(1-methylpyrazol-4-yl)methyl]-2,4-dioxo-quinazoline-6-sulfonamide] | – | – | 47 nM | IC50 (PARG in HeLa cell line; [3]): 113 nM
33 | COCCn1c(=O)n(Cc2cnn(C)c2)c(=O)c2cc(S(=O)(=O)NC3(C#N)CC3)ccc21 [Example 357] | – | – | 153 nM | IC50 (PARG in HeLa cell line; [3]): 1600 nM
